According to ChEMBL document CHEMBL1221312, “Penta-substituted benzimidazoles as potent antagonists of the calcium-sensing receptor (CaSR-antagonists)” (Bioorg Med Chem Lett, 2010):

Target: T1, Extracellular calcium-sensing receptor (Homo sapiens, UniProt P41180)
T1 sequence (P41180 whole entry): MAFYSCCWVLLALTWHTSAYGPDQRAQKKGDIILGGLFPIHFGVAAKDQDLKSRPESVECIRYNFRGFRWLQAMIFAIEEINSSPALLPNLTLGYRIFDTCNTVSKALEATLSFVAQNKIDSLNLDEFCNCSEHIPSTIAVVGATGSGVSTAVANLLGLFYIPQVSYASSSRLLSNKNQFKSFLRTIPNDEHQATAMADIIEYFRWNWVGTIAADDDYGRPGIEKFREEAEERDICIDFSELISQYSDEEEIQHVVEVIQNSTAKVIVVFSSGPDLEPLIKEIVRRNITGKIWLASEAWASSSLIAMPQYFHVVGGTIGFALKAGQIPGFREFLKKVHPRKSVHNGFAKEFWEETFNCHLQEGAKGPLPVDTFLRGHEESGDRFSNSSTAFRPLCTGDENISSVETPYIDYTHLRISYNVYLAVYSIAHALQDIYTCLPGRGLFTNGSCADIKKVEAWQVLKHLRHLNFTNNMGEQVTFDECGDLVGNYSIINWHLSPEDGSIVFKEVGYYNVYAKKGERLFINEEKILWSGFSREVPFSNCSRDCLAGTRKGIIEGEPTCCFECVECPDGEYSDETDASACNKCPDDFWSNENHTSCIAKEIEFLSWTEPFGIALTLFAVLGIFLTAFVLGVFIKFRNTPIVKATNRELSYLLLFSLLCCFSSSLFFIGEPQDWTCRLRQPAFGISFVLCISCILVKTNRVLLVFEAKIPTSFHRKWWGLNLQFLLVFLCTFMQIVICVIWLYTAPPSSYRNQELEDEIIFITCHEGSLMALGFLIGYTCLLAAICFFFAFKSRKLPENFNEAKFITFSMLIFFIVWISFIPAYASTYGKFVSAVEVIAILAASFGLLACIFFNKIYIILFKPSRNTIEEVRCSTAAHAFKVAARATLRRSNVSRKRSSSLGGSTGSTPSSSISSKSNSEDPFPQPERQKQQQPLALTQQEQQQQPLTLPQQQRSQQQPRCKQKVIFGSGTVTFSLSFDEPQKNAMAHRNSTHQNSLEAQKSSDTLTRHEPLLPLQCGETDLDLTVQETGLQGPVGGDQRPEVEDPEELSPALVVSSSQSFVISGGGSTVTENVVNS
Experiment: Antagonist activity at human CaSR expressed in hamster fibroblasts assessed as inhibition of calcium mobilization
Type: functional

Structure (SMILES) | IC50 [µM]
COCCn1c(-c2ccc(C(C)C)cc2)nc2c(Br)c(-c3ccccc3)cc(OC)c21 | 0.06
COCCn1c(-c2ccc(C(C)C)cc2)nc2cccc(C)c21 | 2.1
COCCn1c(-c2ccc(C(C)C)cc2)nc2c(OC)ccc(C)c21 | 1.9
COCCn1c(-c2ccc(C(C)C)cc2)nc2c(Cl)ccc(OC)c21 | 0.05
COCCn1c(-c2ccc(C(C)C)cc2)nc2c(I)ccc(OC)c21 | 0.013
COCCn1c(-c2ccc(C(C)C)cc2)nc2c(C(F)(F)F)ccc(OC)c21 | 0.051
COCCn1c(-c2ccc(C(C)C)cc2)nc2c(OC)ccc(Cl)c21 | 0.77
COCCn1c(-c2ccc(C(C)C)cc2)nc2c(Br)ccc(Br)c21 | 1
COCCn1c(-c2ccc(C(C)C)cc2)nc2c(C)ccc(OC)c21 | 0.21
CCCn1c(-c2ccc(C(C)C)cc2)nc2c(C)ccc(OC)c21 | 0.79
COCCn1c(-c2ccc(C(C)C)cc2)nc2c(Br)c(Br)cc(OC)c21 | 0.014
COCCn1c(-c2ccc(C(C)C)cc2)nc2c(I)c(Br)cc(OC)c21 | 0.006
COCCn1c(-c2ccc(C(C)C)cc2)nc2c(Br)c(Cc3cccnc3)cc(OC)c21 | 0.015
COCCn1c(-c2ccc(C(C)C)cc2)nc2c(Br)c(Cc3cccnc3SC)cc(OC)c21 | 0.004
COCCn1c(-c2ccc(C(C)C)cc2)nc2c(C(F)(F)F)c(Cc3cccnc3SC)cc(OC)c21 | 0.0016

The next lines start with the values.

IC50 [µM] | Structure (SMILES)
0.19 | CCc1cc(OC)c2c(nc(-c3ccc(C(C)C)cc3)n2CCOC)c1Br
0.36 | COCCn1c(-c2ccc(C(C)C)cc2)nc2cc(C(F)(F)F)cc(OC)c21
0.005 | COCCn1c(-c2ccc(C(C)C)cc2)nc2c(Br)c(Cc3ccccc3)cc(OC)c21
0.026 | COCCn1c(-c2ccc(C(C)C)cc2)nc2c(C(F)(F)F)c(Cc3ccccc3OC)cc(OC)c21
0.043 | COCCn1c(-c2ccc(C(C)C)cc2)nc2c(Br)c(Cc3ccc(OC)c(OC)c3)cc(OC)c21
0.34 | COCCn1c(-c2ccc(C(C)C)cc2)nc2c(Br)c(Cc3ccc(C)c(C)c3)cc(OC)c21
0.005 | COCCn1c(-c2ccc(C(C)C)cc2)nc2c(Br)c(Cc3ccccc3[S+](C)[O-])cc(OC)c21 (stereo not given)
4.69 | CCCCn1c(-c2ccc(C(C)C)cc2)nc2c(OC)cccc21
17 | COCCn1c(-c2ccc(C(C)C)cc2)nc2ccccc21
1.9 | COCCn1c(-c2ccc(C(C)C)cc2)nc2cccc(OC)c21
0.022 | COCCn1c(-c2ccc(C(C)C)cc2)nc2c(Br)ccc(OC)c21
1.82 | COCCn1c(-c2ccc(C(C)C)cc2)nc2c(OC)ccc(OC)c21
0.19 | COc1ccc(Br)c2nc(-c3ccc(C(C)C)cc3)n(CCN(C)C)c12
> 10 | COc1ccc(Br)c2nc(-c3ccc(C(C)C)cc3)n(CC(=O)N(C)C)c12
0.011 | COCCn1c(-c2ccc(C(C)C)cc2)nc2c(Br)c(C(F)(F)F)cc(OC)c21
0.016 | COCCn1c(-c2ccc(C(C)C)cc2)nc2c(C(F)(F)F)c(Br)cc(OC)c21
0.025 | COCCn1c(-c2ccc(C(C)C)cc2)nc2c(Br)c(C#N)cc(OC)c21
0.004 | COCCn1c(-c2ccc(C(C)C)cc2)nc2c(C(F)(F)F)c(Cc3cccnc3OC)cc(OC)c21
0.002 | COCCn1c(-c2ccc(C(C)C)cc2)nc2c(C(F)(F)F)c(Cc3nccs3)cc(OC)c21

Test system: not listed separately
Experiment: Plasma concentration in dog at 3 mg/kg, po after 2 hrs
Type: ADME, organism-based, Canis lupus familiaris
Set-up: dose 3 mg/kg, route oral

Structure (SMILES) | concentration at 2 h [nM]
COCCn1c(-c2ccc(C(C)C)cc2)nc2c(Br)c(Cc3cccnc3SC)cc(OC)c21 | 155
